Laboratory results taken from patent US4772602A, “N-substituted 3,4-dihydropyrimidine derivatives as agents for treating disorders of cardiovascular system” (Suntory Limited, priority 1985, dated 1988).

Columns and labels:
vertebral artery [1] = assay: vascular resistance of the vertebral artery in anesthetized dogs (ED30); type: in vivo, dog; conditions: Canis lupus familiaris, intravenous injection
Experimental: The pharmacological effect (ED30) of the compounds of the present invention with respect to the vascular resistance of the vertebral artery in anesthetized dogs was treated by the following procedure.
Adult dogs of either sex (7-14 kg in body weight) were anesthetized with at first thiopental sodium (35 mg/kg, intraperitoneal), anesthetized with urethane (400 mg/kg, intravenous) and chloralose (60 mg/kg, intravenous) and kept under artificial respiration throughout the experiment. After thoracotomy at the left first intercostal space, the vertebral artery was exposed and blood flow was measured with intracorporeal flow probe connected to an electromagnetic flowmeter (MF-27, Nihon Kohden).
At the same time, continuous measurement of the following parameters was made: systemic blood pressure (mean pressure) at the right femoral artery, the limb lead II ECG, the heart rate with a tachometer triggered by the R wave of ECG, and the vascular resistance determined by loading a electronic divider unit (EO-601 G, Nihon Kohden) with the mean values of blood pressure and vertebral artery blood flow. All of these parameters were recorded simultaneously on a polygraph (RM-600, Nihon Kohden).
All the test compounds were injected through a cannula inserted into the femoral vein.
The ED30 (μg/kg) values obtained by intravenous injection are listed in Table 4, wherein the Compound Numbers are keyed to the Example Numbers.

[2] = system: isolated guinea pig hearts (coronary artery); assay: coronary vascular dilative effect in isolated guinea pig hearts (Langendorff's method); design: species or system guinea pig (Heartley); conditions: 37° C., 0.1 ml administered into the coronary artery
Experimental: The coronary vascular dilative effect of 3N-substituted 3,4-dihydropyrimidine derivatives was tested.
Heartley guinea pigs (weight 400-500 g) were killed by a blow on the head and their hearts were immediately isolated. The hearts were perfused with Krebs-Henseleit solution bubbled with a mixture of 95% O2 +5% CO2 and maintained at 37° C. at a constant rate of 6 ml/minute according to the Langendorff's method [J. Pharmacol. Methods 2, 143 (1979)]. The perfusion pressure was measured by a pressure transducer continuously. Samples were prepared by emulsifying 1 mg of a test compound in 1 ml of a mixture of dimethylsulfoxide and physiological saline solution (1:9) and diluting with physiological saline solution to the predetermined concentration. 0.1 ml of the diluted solution was administered into the coronary artery via a rubber tube connected to an aorta cannula to obtain ED50 (μg/heart) data as shown in Table 3. The numbers of the compounds in the Table correspond respectively to those of the working examples described above.

vertebral artery [3] = assay: time course of reduction of the resistance of the vertebral artery in anesthetized dogs (T1/2); type: in vivo, dog; conditions: ED30 doses injected
Experimental: Selected compounds of the present invention were tested for their ability to reduce the resistance of the vertebral artery in anesthetized dogs.
The animals were injected with the ED30 doses of test compounds and the time course of changes in the vasucular resistance were studied as shown schematically in FIG. 1. From the curve shown in FIG. 1, the values of T1/2 (min) (the time to reach 50% of the resistance drop). The results are shown in Table 5, in which the compound numbers correspond to the Example numbers.

SMILES | ED30 (vertebral artery [1]) | ED50 (coronary vascular dilative effect) [2] | T1/2 (the time to reach 50% of the resistance drop) (vertebral artery [3])
CC1=NC(C)=C(C(=O)OCC2CC2)C(c2ccccc2[N+](=O)[O-])N1C(=O)OCCN(C)Cc1ccccc1 (stereo not drawn) [Compound 1, 3-{2-(N-benzyl-N-methylamino)ethoxycarbonyl}-5-cyclopropylmethoxycarbonyl-2,6-dimethyl-4-(2-nitrophenyl)-3,4-dihydropyrimidine] | 0.58 µg/kg | 0.013 μg/heart | 
CC1=NC(C)=C(C(=O)OCC2CC2)C(c2cccc([N+](=O)[O-])c2)N1C(=O)OCCN(C)Cc1ccccc1 (stereo not drawn) [Compound 2] | 0.84 µg/kg | 0.52 μg/heart | 
CCOC(=O)C1=C(C)N=C(C)N(C(=O)OCCN(C)Cc2ccccc2)C1c1ccccc1[N+](=O)[O-] (stereo not drawn) [Compound 3] | 0.75 µg/kg | 0.0095 μg/heart | 
COc1ccc(CN(C)CCOC(=O)N2C(C)=NC(C)=C(C(=O)OCC3CC3)C2c2ccccc2[N+](=O)[O-])cc1 (stereo not drawn) [Compound 5] | 2.4 µg/kg | 0.036 μg/heart | 
CC1=NC(C)=C(C(=O)OCC2CC2)C(c2ccccc2[N+](=O)[O-])N1C(=O)OCCN(C)C(c1ccccc1)c1ccccc1 (stereo not drawn) [Compound 8] | 4.1 µg/kg |  | 
CCCCN(CCOC(=O)N1C(C)=NC(C)=C(C(=O)OCC2CC2)C1c1ccccc1[N+](=O)[O-])Cc1ccccc1 (stereo not drawn) [Compound 14] | 2.1 µg/kg |  | 
CCN(CCOC(=O)N1C(C)=NC(C)=C(C(=O)OCC2CC2)C1c1ccccc1[N+](=O)[O-])c1ccccc1 (stereo not drawn) [Compound 15] | 2.5 µg/kg |  | 
CC1=NC(C)=C(C(=O)OCC2CC2)C(c2ccccc2[N+](=O)[O-])N1C(=O)OCCCN(C)Cc1ccccc1 (stereo not drawn) [Compound 16] | 3.8 µg/kg |  | 
CC1=NC(C)=C(C(=O)OCC2CC2)C(c2ccccc2[N+](=O)[O-])N1C(=O)OCCN(C)CCc1ccccc1 (stereo not drawn) [Compound 17] | 3.4 µg/kg |  | 
CC1=NC(C)=C(C(=O)OCC2CC2)C(c2ccccc2[N+](=O)[O-])N1C(=O)OCC1CCCN1Cc1ccccc1 (stereo not drawn) [Compound 19] | 1.4 µg/kg |  | 
CC1=NC(C)=C(C(=O)OCC2CC2)C(c2ccccc2[N+](=O)[O-])N1C(=O)OCCN1CCOCC1 (stereo not drawn) [Compound 20] | 4 µg/kg |  | 
CC1=NC(C)=C(C(=O)OCC2CC2)C(c2ccccc2[N+](=O)[O-])N1C(=O)OCCN1CCN(Cc2ccccc2)CC1 (stereo not drawn) [Compound 24] |  | 0.01 μg/heart | 
CC1=NC(C)=C(C(=O)OCC2CC2)C(c2ccccc2[N+](=O)[O-])N1C(=O)OCCN1CCN(c2cccc(C(F)(F)F)c2)CC1 (stereo not drawn) [Compound 26] | 4.1 µg/kg |  | 
CC1=NC(C)=C(C(=O)OC(C)C)C(c2ccccc2[N+](=O)[O-])N1C(=O)OCCc1ccccn1 (stereo not drawn) [Compound 27] |  | 0.029 μg/heart | 
CC1=NC(C)=C(C(=O)OCC2CC2)C(c2ccccc2[N+](=O)[O-])N1C(=O)OCCN(C/C=C/c1ccccc1)Cc1ccccc1 (stereo not drawn) [Compound 29] | 2.5 µg/kg |  | 9.5 min
CC1=NC(C)=C(C(=O)OCC2CC2)C(c2ccccc2[N+](=O)[O-])N1C(=O)OCCN(C)Cc1ccc2ccccc2c1 (stereo not drawn) [Compound 30] | 0.6 µg/kg |  | 
CC1=NC(C)=C(C(=O)OCC2CC2)C(c2ccccc2[N+](=O)[O-])N1C(=O)OCCN(C/C=C/c1ccccc1)Cc1cccs1 (stereo not drawn) [Compound 32] | 3.2 µg/kg |  | 7.0 min
CC1=NC(C)=C(C(=O)OCC2CC2)C(c2ccccc2[N+](=O)[O-])N1C(=O)OCCN(C/C=C/c1ccccc1)C/C=C/c1ccccc1 (stereo not drawn) [Compound 33] |  |  | 30.5 min
CC1=NC(C)=C(C(=O)OCC2CC2)C(c2ccccc2[N+](=O)[O-])N1C(=O)OCCN(C)Cc1ccccn1 (stereo not drawn) [Compound 35] | 4.2 µg/kg |  | 
CC1=NC(C)=C(C(=O)OCC2CC2)C(c2cccc([N+](=O)[O-])c2)N1C(=O)OCCN(CCCc1ccccc1)Cc1ccccc1 (stereo not drawn) [Compound 36] |  |  | 12.0 min
CC1=NC(C)=C(C(=O)OC(C)C)C(c2cccc([N+](=O)[O-])c2)N1C(=O)OCCN(CCCc1ccccc1)Cc1ccccc1 (stereo not drawn) [Compound 37] |  |  | 10.3 min
CCOC(=O)C1=C(C)N=C(C)N(C(=O)OCCN(CCCc2ccccc2)Cc2ccccc2)C1c1cccc([N+](=O)[O-])c1 (stereo not drawn) [Compound 38] | 4.2 µg/kg |  | 8.0 min
CC1=NC(C)=C(C(=O)OC(C)C)C(c2ccccc2[N+](=O)[O-])N1C(=O)OCCN(CCCc1ccccc1)Cc1ccccc1 (stereo not drawn) [Compound 39] | 2.3 µg/kg |  | 
